This is an account of results in patent US20230339896A1, “HPK1 INHIBITORS AND USES THEREOF” (QILU REGOR THERAPEUTICS INC., priority 2020, published 2023).

One data set has as its system MDCK. Put plainly: MDCK permeability assay. The data set is classed as in vitro ADME. The following applies: pH 7.4. On the procedure: (§1) This assay is for generating screening data only, and to estimate the intestinal absorption potential of drug candidates. The study will be conducted in accordance with International Bioethical Standards “World MedicalAssociation Declaration of Helsinki.
(§2) Cell line: • ▪ MDCK (ATCC), or MDCK MDR1 (NKI).
(§3) Prepare donor buffer: • For A-to-B direction: • ✔ HBSS buffer with 0.3% DMSO and 5 µM Lucifer Yellow (LY): add 150 µL DMSO and 125 µL LY (2 mM) into 50 mL HBSS buffer (pH 7.4). • ✔ HBSS buffer with 0.1% DMSO and 5 µM Lucifer Yellow (LY): add 50 µL DMSO and 125 µL LY (2 mM) into 50 mL HBSS buffer (pH 7.4). • ✔ HBSS buffer with 5 µM Lucifer Yellow (LY): add 125 µL LY (2 mM) into 50 mL HBSS buffer (pH 7.4). • For B-to-A direction: • ✔ HBSS buffer with 0.3% DMSO: add 150 µL DMSO into 50 mL HBSS buffer (pH 7.4). • ✔ HBSS buffer with 0.1% DMSO: add 50 µL DMSO into 50 mL HBSS buffer (pH 7.4). • ✔ HBSS buffer without DMSO. • Prepare receiver buffer: • For A-to-B direction: Prepare HBSS buffer with 0.4% DMSO: add 200 µL DMSO into 50 mL HBSS buffer (pH 7.4) • For B-to-A direction: Prepare HBSS buffer with 0.4% DMSO and 5 µM LY: add 200 uL DMSO and 125 µL LY (2 mM) into 50 mL HBSS buffer (pH 7.4) • Controls: • Prepare 10 mM stock concentrations of compound in DMSO and Lucifer Yellow in assay buffer using the following formula: • (Actual Weight/Molecular Weight)/mL solvent =10 mM • Reference compound: Erythromycin, Metoprolol, Atenolol
(§4) MDCK assay plates are seeded 3-4 days prior to running the assay. 24-well plates are seeded at a cell density of 0.88 × 10^5/well in a 400 µL apical chamber volume (2.2×10^5 /mL) with a 25 mL volume of growth medium to the 24-well basal chamber. Assay plates are generally provided with a growth medium change 24 hours prior to the assay.
(§5) MDCK assay plates are rinsed with HBSS+ buffer prior to running the assay. After rinsing, fresh HBSS+ is added to the assay plate in a 400 µL apical chamber volume and a 0.8 mL HBSS+ basal chamber volume. Measure the electrical resistance across the monolayer using the Millicell ERS system ohm meter. (The cells will be used if TEER is higher than 100 ohm*cm^2).
(§6) Preparation of the cell plates: • Remove the buffer from the apical side and basolateral side. Add 600 µL of donor solution (for A-to-B) or 500 µL of receiver solution (for B-to-A) to the apical wells based on plate map. • A fresh basolateral plate is prepared by adding 800 µL of receiver solution (for A-to-B) or 900 µL of donor solution (B-to-A) to the well of a new 24-well plate. • Put the apical plate and basolateral plate into 37° C. incubator.
(§7) Preparation of analytical plate: • After 5 min, transfer 100 µL of samples from all donors (for both A-to-B and B-to-A) into appropriate wells of a sample plate for D0. And transfer 100 µL of samples from all apical chambers (the donor of A-to-B and receiver of B-to-A) into appropriate wells of a microplate for Lucifer Yellow D0 (D0 LY) • Lay the apical plate to the basolateral plate to start transport process. • At 90 min, separate the apical and basolateral plates and transfer 100 µL of samples from all donors (for both A-to-B and B-to-A) into appropriate wells of a new sample plate for D90, and transfer 200 µL of samples from all receivers into appropriate wells of a sample plate for R90. Transfer 100 µL of samples from all basolateral chambers (receiver of A-to-B and donor of B-to-A) into appropriate wells of a new microplate for Lucifer Yellow R90 (R90 LY). • Determine LY permeability by reading D0 LY and R90 LY at an excitation wavelength of 485 nm and an emission wavelength of 535 nm using a fluorescent plate reader. • Sample preparation: • For receiver solution: 60 µL of sample + 60 µL ACN with IS (200 ng/mL Osalmid) • For donor solution: 6 µL of sample + 54 µL 0.4% DMSO/HBSS + 60 µL ACN with IS (200 ng/mL Osalmid) […]

A further data set can be described thus: MDCK permeability assay. Format: in vitro ADME. The following applies: dog, MDCK, pH 7.4. On the procedure:
as §1, §2, §3, §4, §5, §6, §7

A word on the Papp A→B: it is the apparent permeability from the apical to the basolateral side of a cell layer. As a reminder, the Papp B→A is the apparent permeability from the basolateral to the apical side of a cell layer.

As for `CN1CCc2cc(F)c(Nc3ncc(Cl)c(N4C[C@](C)(CC(=O)O)c5ccccc54)n3)cc2C1` (single isomer, unassigned) [Example 5, (R)-2-[1-[5-chloro-2-[(6-fluoro-2-methyl-3,4-dihydro-1H-isoquinolin-7-yl)amino]pyrimidin-4-yl]-3-methyl-indolin-3-yl]acetic acid or (S)-2-[1-[5-chloro-2-[(6-fluoro-2-methyl-3,4-dihydro-1H-isoquinolin-7-yl)amino]pyrimidin-4-yl]-3-methyl-indolin-3-yl]acetic acid], in the data set on MDCK (A-B), the “MDCK Permeability (A-B) (×10-6 cm/s)” value is on record as 11.9 ×10-6 cm/s. For the same molecule, the “MDCK Permeability (B-A) (×10-6 cm/s)” value with MDCK (B-A) is on record as 52.3 ×10-6 cm/s.

Consider `COc1cc2c(cc1Nc1ncc(Cl)c(N3CC(C(=O)O)c4ccccc43)n1)CN(C)CC2` (stereo not drawn) [Compound 7, reference compound], for which, in “MDCK permeability assay”, the Papp A→B at 90 min stood at 3.2 ×10⁻⁶ cm/s and the Papp B→A at 90 min amounted to 9.4 ×10⁻⁶ cm/s.

Take `COc1cc2c(cc1Nc1ncc(Cl)c(N3CC(C)(CC(=O)O)c4ccc(F)cc43)n1)CN(C)CC2` (stereo not drawn) [Compound 10, reference compound]: in “MDCK permeability assay”, the Papp A→B at 90 min amounted to 2.6 ×10⁻⁶ cm/s and the Papp B→A at 90 min was 58.9 ×10⁻⁶ cm/s.

In “MDCK permeability assay”, `COc1cc2c(cc1Nc1ncc(Cl)c(N3CC(C)(CC(=O)O)c4ccccc43)n1)CN(C)CC2` (stereo not drawn) [Example 1, 2-(1-(5-chloro-2-((6-methoxy-2-methyl-1,2,3,4-tetrahydroisoquinolin-7-yl)amino)pyrimidin-4-yl)-3-methylindolin-3-yl)acetic acid] yielded a Papp A→B at 90 min of 2.2 ×10⁻⁶ cm/s and a Papp B→A at 90 min of 47.8 ×10⁻⁶ cm/s.

Take `CN1CCc2cc(F)c(Nc3ncc(Cl)c(N4CC(C)(CC(=O)O)c5ccccc54)n3)cc2C1` (stereo not drawn) [Example 4, 2-(1-(5-chloro-2-((6-fluoro-2-methyl-1,2,3,4-tetrahydroisoquinolin-7-yl)amino)pyrimidin-4-yl)-3-methylindolin-3-yl)acetic acid]: in the data set “MDCK permeability assay”, the apical-to-basolateral permeability (Papp A→B) at 90 min came out at 7.7 ×10⁻⁶ cm/s and the Papp B→A at 90 min amounted to 41.1 ×10⁻⁶ cm/s.

For `COc1cc2c(cc1Nc1ncc(Cl)c(N3CC(CC(=O)O)c4ccccc43)n1)CN(C)CC2` (stereo not drawn) [Compound 8, reference compound], in the data set “MDCK permeability assay”, the Papp A→B at 90 min worked out at 4.5 ×10⁻⁶ cm/s and the Papp B→A at 90 min turned out to be 38.5 ×10⁻⁶ cm/s.
